molecular target: T1, pSTAT6 (Homo sapiens, UniProt P42226); experiment: MSD-pSTAT-PBMC Assay (pSTAT6, IL-4 stimulated); assay type: cell-based; settings: compound 3 hrs, then 1 ng/mL IL-4 10 min, pY641-STAT6, read-out: pSTAT6 IC50
T1 sequence (P42226 1-847): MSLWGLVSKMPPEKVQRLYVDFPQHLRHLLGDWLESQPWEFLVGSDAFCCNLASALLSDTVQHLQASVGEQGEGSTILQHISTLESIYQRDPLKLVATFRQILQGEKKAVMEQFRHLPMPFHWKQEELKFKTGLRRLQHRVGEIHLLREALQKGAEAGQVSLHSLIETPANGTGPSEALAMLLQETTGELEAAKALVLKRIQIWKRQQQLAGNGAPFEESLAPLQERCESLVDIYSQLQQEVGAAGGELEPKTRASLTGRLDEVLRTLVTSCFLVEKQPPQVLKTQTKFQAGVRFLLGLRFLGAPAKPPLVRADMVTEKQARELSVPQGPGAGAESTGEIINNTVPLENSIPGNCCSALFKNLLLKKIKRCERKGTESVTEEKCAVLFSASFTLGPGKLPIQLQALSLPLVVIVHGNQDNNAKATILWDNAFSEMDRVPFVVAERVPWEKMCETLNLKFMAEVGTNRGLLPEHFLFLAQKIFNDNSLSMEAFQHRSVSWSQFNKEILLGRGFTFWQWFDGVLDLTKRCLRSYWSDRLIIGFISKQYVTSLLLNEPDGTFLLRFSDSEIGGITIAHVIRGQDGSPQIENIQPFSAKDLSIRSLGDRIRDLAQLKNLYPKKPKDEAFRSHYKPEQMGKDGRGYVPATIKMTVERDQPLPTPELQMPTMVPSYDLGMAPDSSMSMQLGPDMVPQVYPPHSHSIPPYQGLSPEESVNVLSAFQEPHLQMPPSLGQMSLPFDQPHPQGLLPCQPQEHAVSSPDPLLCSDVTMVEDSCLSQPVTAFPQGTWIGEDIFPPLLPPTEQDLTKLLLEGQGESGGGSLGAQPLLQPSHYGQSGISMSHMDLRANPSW
Excerpt: Cryopreserved Peripheral Blood Mononuclear Cells (PBMC) are from AllCells. Recombinant Human IL-4 and IL-6 are from Peprotech. Mouse monoclonal anti-STAT3 antibody, rabbit monoclonal anti-pY705-STAT3 antibody, rabbit monoclonal Anti-pY641-STAT6 antibody, and lysis buffer are from Cell Signaling Technology (CST). Mouse monoclonal anti-STAT6 antibody is from BioLegend. Assay plates, blocker, and anti-rabbit secondary antibody are from Meso Scale Discovery (MSD).
Cryopreserved PBMCs were thawed out and allowed to recover overnight in IMDM+10% heat-inactivated FBS prior to plating 50,000 (STAT3) or 25,000 (STAT6) cells per well in 96-well U-bottom tissue culture plates. Cells were treated with compound for 3 hrs, then stimulated with 10 ng/mL IL-6 (STAT3) or 1 ng/mL IL-4 (STAT6) for 10 min. Cells were then spun down and washed with ice-cold PBS prior to lysing the cell pellet with 1× lysis buffer (CST) with 1× HALT protease and phosphatase inhibitor cocktail (Thermo). Lysates were transferred to and incubated overnight at 4° C. with shaking in QuickPlex 96-well high bind assay plates (MSD) pre-coated overnight with 30 μL per well of […] mouse monoclonal anti-STAT3 antibody (STAT3) or 2 μg/mL mouse monoclonal anti-STAT6 antibody (STAT6) in 1× PBS, and pre-blocked for 1 hour with 3% Blocker-A (MSD). Captured protein in the assay plates were then washed and probed with 25 μL per well of […] rabbit monoclonal anti-pY705-STAT3 antibody (STAT3) or […] rabbit monoclonal Anti-pY641-STAT6 antibody (STAT6) in 1% Blocker-A for 1 hour at room temperature with shaking, then washed and probed with 25 ul per well of 1 ug/ml Sulfo-TAG Labeled Goat Anti-Rabbit Antibody (MSD) in 1% Blocker-A for 1 hour at room temperature with shaking. Assay plates were then washed and 150 μL of 1× Read Buffer-T (MSD) was added to each well prior to reading on an SQ120 MSD Plate Reader. Assay signal from each sample was subtracted by the signal from unstimulated control wells and normalized to DMSO control wells. IC50 values were calculated using Graph Pad Prism Dose-Response Nonlinear Regression with variable slope. For both pSTAT3 and pSTAT6 A=≤100 nM; B=>100-1000 nM; C=>1000-3000 nM; and D=>3 μM.

| IC50 [nM] | SMILES |
| --- | --- |
| 100 to 1000 | CCCC(=O)SCCOP(=O)(OCCSC(=O)CCC)C(F)(F)c1ccc2sc(C(=O)N[C@H]3CCCC[C@H]4CC[C@@H](C(=O)N5C[C@@H](C#N)[C@H](c6cccc(OCCCCCC#Cc7cccc8c7CN(C7CCC(=O)NC7=O)C8=O)c6)C5)N4C3=O)cc2c1 (relative stereo) [Compound 14, S,S(((((2-(((3S,6S,10aS)-3-((rel-3S,4R)-3-cyano-4-(3-((7-(2-(2,6-dioxopiperidin-3-yl)-1-oxoisoindolin-4-yl)hept-6-yn-1-yl)oxy)phenyl)pyrrolidine-1-carbonyl)-5-oxodecahydropyrrolo[1,2-a]azocin-6-yl)carbamoyl)benzo[b]thiophen-5-yl)difluoromethyl)phosphoryl)bis(oxy))bis(ethane-2,1-diyl)) dibutanethioate] |
| < 100 | CCCC(=O)SCCOP(=O)(OCCSC(=O)CCC)C(F)(F)c1ccc2sc(C(=O)N[C@H]3CCCC[C@H]4CC[C@@H](C(=O)N5C[C@@H](c6ccn(CCCCCCC#Cc7cccc8c7CN(C7CCC(=O)NC7=O)C8=O)c(=O)c6)CC56CC6)N4C3=O)cc2c1 (stereo partly drawn) [Compound 6, S,S((((2-(((3S,6S,10aS)-3-((6R)-6-(1-(8-(2-(2,6-dioxopiperidin-3-yl)-1-oxoisoindolin-4-yl)oct-7-yn-1-yl)-2-oxo-1,2-dihydropyridin-4-yl)-4-azaspiro[2.4]heptane-4-carbonyl)-5-oxodecahydropyrrolo[1,2-a]azocin-6-yl)carbamoyl)benzo[b]thiophen-5-yl)difluoromethyl)phosphoryl)bis(oxy))bis(ethane-2,1-diyl)) dibutanethioate] |
| < 100 | CCCC(=O)SCCOP(=O)(OCCSC(=O)CCC)C(F)(F)c1ccc2sc(C(=O)NC3CCCCC4CCC(C(=O)N5CC(C#N)C(c6cccc(OCCOCCOc7cccc8c7CN(C7CCC(=O)NC7=O)C8=O)c6)C5)N4C3=O)cc2c1 [Compound 15, S,S(((((2-(((3S,6S,10aS)-3-((rel-3S,4R)-3-cyano-4-(3-(2-(2-((2-(2,6-dioxopiperidin-3-yl)-1-oxoisoindolin-4-yl)oxy)ethoxy)ethoxy)phenyl)pyrrolidine-1-carbonyl)-5-oxodecahydropyrrolo[1,2-a]azocin-6-yl)carbamoyl)benzo[b]thiophen-5-yl)difluoromethyl)phosphoryl)bis(oxy))bis(ethane-2,1-diyl)) dibutanethioate] |
| < 100 | CCCC(=O)SCCOP(=O)(OCCSC(=O)CCC)C(F)(F)c1ccc2sc(C(=O)N[C@H]3CCCC[C@H]4CC[C@@H](C(=O)N5C[C@@H](c6ccn(CCCCCOc7ccc(C8CCC(=O)NC8=O)cc7)c(=O)c6)CC56CC6)N4C3=O)cc2c1 (stereo partly drawn) [Compound 18, S,S(((((2-(((3S,6S,10aS)-3-((6R)-6-(1-(5-(4-(2,6-dioxopiperidin-3-yl)phenoxy)pentyl)-2-oxo-1,2-dihydropyridin-4-yl)-4-azaspiro[2.4]heptane-4-carbonyl)-5-oxodecahydropyrrolo[1,2-a]azocin-6-yl)carbamoyl)benzo[b]thiophen-5-yl)difluoromethyl)phosphoryl)bis(oxy))bis(ethane-2,1-diyl)) dibutanethioate] |

| SMILES | IC50 [nM] |
| --- | --- |
| CCCC(=O)SCCOP(=O)(OCCSC(=O)CCC)C(F)(F)c1ccc2sc(C(=O)NC3CCCCC4CCC(C(=O)N5CC(C#N)C(c6cccc(OCCCCOc7ccc(C8CCC(=O)NC8=O)cc7)c6)C5)N4C3=O)cc2c1 [Compound 4, trans-S,S(((((2-(((3S,6S,10aS)-3-(3-cyano-4-(3-(4-(4-(2,6-dioxopiperidin-3-yl)phenoxy)butoxy)phenyl)pyrrolidine-1-carbonyl)-5-oxodecahydropyrrolo[1,2-a]azocin-6-yl)carbamoyl)benzo[b]thiophen-5-yl)difluoromethyl)phosphoryl)bis(oxy))bis(ethane-2,1-diyl)) dibutanethioate] | < 100 |
